Assay results: US20140221499A1, “NOVEL RODENT CONTROL AGENTS AND USES THEREOF” (priority 2011, published 2014)

How the values were obtained:
[1] = test system: corticosterone levels in rat plasma; assay: Plasma corticosterone assay after odor exposure; format: in vivo; conditions: 30 min exposure, 10% amine or 2% TMT, 1 ml, ±SEM
Description: Avoidance to 2-phenylethylamine in rats was associated with acute changes in circulating levels of the stress hormone corticosterone.
Plasma corticosterone assay. […] Corticosterone levels were measured in duplicate using a competitive radioactive binding assay as described previously (Pryce C R, Bettschen D, Bahr N I, & Feldon J (2001) Comparison of the effects of infant handling, isolation, and nonhandling on acoustic startle, prepulse inhibition, locomotion, and HPA activity in the adult rat. Behav Neurosci 115(1):71-83).

rTAAR9 = target: T1, rTAAR9 (Rattus norvegicus, UniProt Q923Y6); assay: CRE-SEAP reporter gene assay in HEK293 cells transfected with rTAAR9; format: cell-based; conditions: FIG. 11A, functional with or without 'Rho tag', EC50 ± s.e.m., 4-parameter Hill equation
T1 construct: Full Taar coding regions were cloned into pcDNA3.1; expressed in transfected cells; host or cells: HEK293
T1 sequence (Q923Y6 1-338): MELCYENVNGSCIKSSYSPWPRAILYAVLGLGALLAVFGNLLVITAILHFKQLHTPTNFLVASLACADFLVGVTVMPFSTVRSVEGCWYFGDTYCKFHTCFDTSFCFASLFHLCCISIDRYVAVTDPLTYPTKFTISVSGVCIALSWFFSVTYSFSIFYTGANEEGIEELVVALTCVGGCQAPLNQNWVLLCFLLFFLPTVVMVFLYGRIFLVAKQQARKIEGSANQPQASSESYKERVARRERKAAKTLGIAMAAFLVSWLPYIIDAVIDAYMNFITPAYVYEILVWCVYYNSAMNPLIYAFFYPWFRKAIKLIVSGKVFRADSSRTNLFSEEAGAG
Description: FIG. 11 illustrates the dose-dependent responses of TAARs to amines. HEK293 cells were cotransfected with plasmids encoding CRE-SEAP and rTAARs (a) or mTAARs (b), incubated with concentrations of ligands indicated, and assayed for reporter activity (triplicates±s.d.). EC50 values (±s.e.m, bottom right) were calculated using SigmaPlot (Systat Software) and a 4-parameter Hill equation.
The following mixes (10 μM of each indicated compounds) were tested for their ability to activate rat TAARs. Mix 1: butylamine, dibutylamine, hexylamine. Mix 2: 2-aminopentane, isoamylamine, isobutylamine, isopropylamine. Mix 3: N,N-dimethylcyclohexylamine, 1-methylindole, tryptamine, phenylethylamine. Mix 4: indole, 1-methylpyrrolidine, 1-methylpiperidine, pyrrolidine. […]
Full Taar coding regions were cloned into pcDNA3.1-(Invitrogen) with or without a 5′ DNA extension of 69 bp encoding the first 20 amino acids of bovine rhodopsin followed by a cloning linker ([…]). […] Fluorescence was measured on an EnVision plate reader (Perkin Elmer) and SEAP activity graphed as relative fluorescence of a phosphatase substrate.
Here, we set out to identify agonists for additional mouse and rat TAARs. […] Transfected cells were incubated with test chemicals, and phosphatase activity was quantified with a fluorescent substrate as a reporter for TAAR activation. […]

SMILES | plasma levels of corticosterone [1] | EC50 (rTAAR9)
NCCc1ccccc1 [2-phenylethylamine] | 194 ± 18 ng/mL | –
CN(C)C1CCCCC1 [N,N-DIMETHYLCYCLOHEXYLAMINE, N,N-dimethylcyclohexylamine] | – | 26.6 ± 1.9 µM
